For data set [1], the system named is New Zealand White rabbits. The data set can be described thus: Heart rate in anaesthetised rabbits, topical formulations versus IV bethanechol. Type of data set: in vivo, rabbit. The conditions noted are these: range of doses. The source says: More specifically, adult male New Zealand White rabbits, of approximate body weight 2.0 to 3 kg, were allocated in groups of three to be treated with formulations of bethanechol given in Table 1, designated 2, 6, 9 and 14C, along with each of their matching placebos. Animals were anaesthetised with urethane, administered IP, and heart rate was monitored via ECG leads. They were placed in the prone position after being anaesthetised (this inhibits the drug from entering the GI tract). Salivation was measured by inserting pre-weighed cotton wool balls into the oral cavity, removing after five or ten minutes and weighing. The difference in weight provided an estimate of salivary flow.
At the end of the experiment, one animal from each group was given bethanechol intravenously at a range of doses, in order to produce a dose-response curve for heart rate. This was compared to the effect of the active formulations, when given topically, on heart rate.

For data set [2], the system named is healthy volunteers. Briefly: Phase 1 study, formulation applied topically to the oral mucosa. Type of data set: in vivo, human. To be noted: oral and oromucosal. The procedure: In a Phase 1 study involving four healthy volunteers, Formulation 14C applied topically to the oral mucosa at doses up to 20 mg, kept in situ for two minutes.
This local absorption is likely to deliver enough bethanechol to the minor salivary glands, numbering in the hundreds to thousands and located immediately below the oral mucosa, to stimulate them to produce mucin-rich saliva which is disproportionately important for ensuring a comfortable month feel. When added to the salivary stimulation achieved by oral ingestion of bethanechol, it may reasonably be concluded that the formulation can produce better relief from xerostomia, with fewer side-effects, than purely systemic dosing of bethanechol.

The conditions of data set [3]: cited from earlier work.
Data set [4] concerns patients with xerostomia. The conditions noted are these: administered orally, small number of clinical studies; cited from earlier work.
The conditions of data set [5]: cited from earlier work. The source holds these as a separate data set.
For data set [6], the system named is rabbits. The data set can be described thus: Blood pressure and heart rate in anaesthetised rabbits (separate experiment). Type of data set: in vivo, rabbit. The conditions noted are these: intravenous, dose-related at 30, 100 and 300 μg/kg. The source says: In a further, separate experiment, formulation 14C and its matching placebo were given to 3 anaesthetised rabbits in which blood pressure, via an indwelling cannula in the carotid artery, was monitored, along with heart rate.

On to `CC(C[N+](C)(C)C)OC(N)=O` (centres unmarked) [bethanechol chloride, Bethanechol chloride], for which the “Effect on heart rate” value in data set [1] was “marked and dose-dependent bradycardia”; in data set [6], “reduced”. In data set [2], the “Pharmacokinetics (linearity)” value was “linear”. Moreover, the aqueous solubility result in data set [3] is listed as “high”. Besides, in data set [4], the Salivary flow entry is recorded as “increase salivary flow”. Further, the “Penetration into the CNS” value in data set [5] (at therapeutic doses) is recorded as “does not significantly penetrate into the CNS”. Further, the “Absorption from the GI tract” value in data set [5] (in vivo) is given as “only poorly absorbed”. For the same molecule, the “Effect on blood pressure” value in data set [6] is given as “reduced”.

Values taken from US9492546B2, “Use of bethanechol for treatment of Xerostomia” (Acacia Pharma Limited, priority 2011, dated 2016).
